Entries after “also recorded” stand apart in the source; their conditions may differ.
What was measured:
human adult PBMCs = assay: Cytokine production by stimulated human adult PBMCs (ELISA / multiplex); assay type: cell-based; conditions: for Adult PBMCs (median ng/ml) IL-6 (N = 7) / Adult PBMCs (median ng/ml) TNFa (N = 13): human adult PBMCs, compounds at 100 µM (FIG. 7), ELISA
Procedure: ELISAs and Multiplex-Analyte Assays. Supernatants derived from human PBMCs stimulations were assayed by ELISA for TNF and IL-6 (ThermoFisher Scientific; Waltham, MA, USA). Cytokine and chemokine expression profiles (e.g., IFNγ, IL-9, IL-10, IL-12 (p70), IL-13, IL-1β, IL-23, IL-27, IL-28A, IL-33, IL-6, MIP-3α/CCL20, and TNF) in cell culture supernatants were measured using a customized Milliplex® Human Th17 Magnetic Bead Panel according to the manufacturer's instructions (Millipore, Chicago, IL, USA). Assays were read and analyzed on the Luminex® 100/200TM System and xPOTENT® software (Luminex, Austin, TX). A minimum threshold was set at the minimum detectable concentration for each individual assay, defined as three standard deviations above the mean background.
PBMCs were isolated from blood using a Ficoll density gradient. PBMCs either used fresh or were stored at 5×10^7 cells per vial in 1 mL RPMI containing 20% autologous plasma and 10% DMSO at −80° C. until use. […] PBMCs isolated from human adult donors or THP1-NF-κB cells were resuspended at a concentration of 10^5 cells/200 μl of RPMI supplemented with 10% of platelet-poor plasma or THP1 culture medium, respectively. […] After 24 hours of incubation (37° C., 5% CO2), plates were spun down (500×g, room temperature, 5 minutes) and supernatants were harvested for further analysis.

THP1-NF-κB cells = assay: THP1-NF-κB cell stimulation for 24 hours, secreted luciferase luminescence; assay type: cell-based, human; conditions: for THP1 cells (relative luminescence units, N = 4) Comp at 25 uM / THP1 cells (relative luminescence units, N = 4) Comp at 100 uM: NF-κB-dependent luminescence, 24 hours; for THP1 cells (relative luminescence units, N = 4) Comp at 25 uM: compound at 25 uM; for THP1 cells (relative luminescence units, N = 4) Comp at 100 uM: compound at 100 uM
Procedure: (§1) THP-1 Cell Line and Culture Conditions. The THP1-Lucia™ cell line was obtained from Invivogen (San Diego, CA). THP1-Lucia cells, which are human monocytic cells derived from the blood of a child with leukemia, contain an NF-kB-inducible Luc reporter construct. This allows NF-kB activation to be measured by quantifying the luminescence from the secreted luciferase enzyme. THP1-Lucia cells were cultured in RPMI 1640 supplemented with 10% non-heat inactivated fetal bovine serum (FBS), 10 mM HEPES, 1.0 mM sodium pyruvate, 50 ug/ml Pen-Strep, and 100 ug/mL Normocin™. Once cultured, the cells were stored in a 37° C. incubator with 5% CO2 and a humidified atmosphere. Cells were passaged every 2-3 days and not allowed to exceed a concentration of 2.0×10^6 cells/ml media.
PBMCs were isolated from blood using a Ficoll density gradient. PBMCs either used fresh or were stored at 5×10^7 cells per vial in 1 mL RPMI containing 20% autologous plasma and 10% DMSO at −80° C. until use. Stimulation plates were prepared by transferring 0.66 μl of DMSO-dissolved compounds (30 or 7.5 mM) to each well of a round bottom 96-well plate. PBMCs isolated from human adult donors or THP1-NF-κB cells were resuspended at a concentration of 10^5 cells/200 μl of RPMI supplemented with 10% of platelet-poor plasma or THP1 culture medium, respectively. 200 μl of the cell suspension were transferred to each well resulting in a final compound concentration of 100 or 25 μM. After 24 hours of incubation (37° C., 5% CO2), plates were spun down (500×g, room temperature, 5 minutes) and supernatants were harvested for further analysis.

[1] = system: NF-κB reporter THP1 cells; assay: NF-kB-induced luminescence HTS in THP1-Lucia cells (384-well); assay type: cell-based, human; conditions: ranked at 3.3 μM; ~200,000 compounds tested
Description: HTS Overview: To identify immunomodulators/adjuvants that robustly activate human immune cells, ˜200,000 small molecules were screening in a THP1 cell-based assay. The chemical libraries screened included known bioactive and commercial libraries from various sources including commercial libraries such as ChemDiv, ChemBridge, and Asinex. All libraries were owned and provided by the Institute of Chemistry and Cell Biology (ICCB)—Longwood (Harvard Medical School). The project primary screen incorporated two distinct arms: a) a luciferase-based screen which corresponds to the relative activation of the NF-κB reporter; and b) a fluorescence-based screen, corresponding to the phenotypic adherence, a distinct marker of cell activation, of the human monocytic THP-1 cell lines. Described herein are small molecules identified in the screen that induce NF-kB activity based on a luciferase-based THP-1 cell screen.
as §1
NF-kB-induced Luminescence Assay. THP1-Lucia cells between passage 15 and 18 and suspended in culture medium were dispensed into 384-well black clear-bottom plates (Corning 3712) at 30,000 cells/30 μl/well using a Combi liquid dispenser. To allow comparison to a benchmark small molecule with known immune stimulating activity, cells at the same concentration were stimulated with 50 μM R848, a TLR7/8 agonist, in 0.3% DMSO and added to every other well of column 24, which was left empty of cells, by multichannel pipette at the same volume. Five μl of 700 nM Phorbol myristate acetate (PMA) in THP1 culture media and 2.3% DMSO, a known peripheral blood cell mitogen, was added to every other well of column 23 by multichannel pipette (final concentration in well: 100 nM in 0.3% DMSO). Five μl of THP1 culture media with 2.3% DMSO was added to the remaining wells of column 23 by multichannel pipette (final concentration 0.3% DMSO). One hundred nl aliquots of library compounds diluted in 100% DMSO were transferred from their original 384-well plates to the assay plates using a Seiko pin transfer machine. Each library plate was pinned in duplicate, yielding two assay plates with identical conditions for comparison. Plates were then incubated for 24 hours at 37 C with 5% CO2 in humid conditions. Following incubation, 10 μL of supernatant was removed from each well and transferred to a white plate (Corning 3570) using a Vprep liquid transfer machine. 10 μL of recombinant Lucia protein (Invivogen) diluted 1:2000 in THP1 culture media was added to empty well 24P. Using a Combi liquid dispenser, 50 μL/well of Quanti-Luc substrate (Invivogen) diluted 1:3 in sterile water was added to the assay plate. Immediately after adding the substrate, the luminescence was read using a PerkinElmer Envision plate reader.

human TLR2 [2] = target: T1, human TLR2 (Homo sapiens, UniProt O60603); assay: HEK-Blue human TLR cell screening (NF-κB SEAP reporter); assay type: cell-based; conditions: compounds at 10 μM, fold change over negative controls
T1 construct: expressed in transfected cells; host or cells: HEK-Blue (human embryonic kidney) cells with an NF-kB-inducible SEAP reporter
Procedure: HEK cell screening. Human embryonic kidney (HEK)-Blue cell lines expressing human TLRs (hTLRs) and a secreted embryonic alkaline phosphatase (SEAP) reporter under the control of an NF-κB-inducible promoter were cultured in 96-well plates (50,000-75,000 cells/200 μl/well) and stimulated with the indicated compounds at 10 µM or positive controls. The media added to the wells is designed for detection of NF-κB-induced SEAP expression. After 16-24 hours of incubation optical density (OD) was read at 650 nm on a Molecular Devices SpectraMax 340PC absorbance detector. Positive controls employed in this assay were: heat-killed Listeria monocytogenes (1×10^8 cells/ml) for hTLR2, Poly (I:C) HMW (1 μg/ml) for hTLR3, ? E. coli K12 LPS (100 ng/ml) for hTLR4, S. typhimurium flagellin (100 ng/ml) for hTLR5, CL307 (1 μg/ml) for hTLR7, CL075 (1 μg/ml) for hTLR8 and CpG ODN 2006 (1 μg/ml) for hTLR9.

human TLR2 [3] = target: T1, human TLR2; assay: HEK293 assay for human TLR2 selectivity (NF-κB/SEAP); assay type: cell-based; conditions: 18-24 hours stimulation, titratable
Procedure: (§2) HEK293 assay for human TLR2 and TLR8 selectivity: Human embryonic kidney (HEK) 293 cells expressing human TLR2 or TLR8 with an NF-κB-responsive secreted embryonic alkaline phosphatase (SEAP) reporter gene were obtained from Invivogen (San Diego, CA). Cells were maintained in RPMI or DMEM with 10% heat inactivated-FBS and selection antibiotics per the manufacturer's instructions. Cells were plated at 5×10^5 cells/96-well and stimulated with indicated agonist(s) for 24 hours. Supernatants were harvested and analyzed for NF-κB/SEAP activation using the QuantiBlue kit (Invivogen). Values are expressed as fold change in OD650 over vehicle-only treated samples.

human TLR8 = target: T2, human TLR8 (Homo sapiens, UniProt Q9NR97); assay: HEK293 assay for human TLR8 selectivity (NF-κB/SEAP); assay type: cell-based; conditions: selectivity counter-assay
T2 construct: host or cells: HEK293 cells with an NF-kB-responsive SEAP reporter gene
T2 sequence (Q9NR97 27-1041): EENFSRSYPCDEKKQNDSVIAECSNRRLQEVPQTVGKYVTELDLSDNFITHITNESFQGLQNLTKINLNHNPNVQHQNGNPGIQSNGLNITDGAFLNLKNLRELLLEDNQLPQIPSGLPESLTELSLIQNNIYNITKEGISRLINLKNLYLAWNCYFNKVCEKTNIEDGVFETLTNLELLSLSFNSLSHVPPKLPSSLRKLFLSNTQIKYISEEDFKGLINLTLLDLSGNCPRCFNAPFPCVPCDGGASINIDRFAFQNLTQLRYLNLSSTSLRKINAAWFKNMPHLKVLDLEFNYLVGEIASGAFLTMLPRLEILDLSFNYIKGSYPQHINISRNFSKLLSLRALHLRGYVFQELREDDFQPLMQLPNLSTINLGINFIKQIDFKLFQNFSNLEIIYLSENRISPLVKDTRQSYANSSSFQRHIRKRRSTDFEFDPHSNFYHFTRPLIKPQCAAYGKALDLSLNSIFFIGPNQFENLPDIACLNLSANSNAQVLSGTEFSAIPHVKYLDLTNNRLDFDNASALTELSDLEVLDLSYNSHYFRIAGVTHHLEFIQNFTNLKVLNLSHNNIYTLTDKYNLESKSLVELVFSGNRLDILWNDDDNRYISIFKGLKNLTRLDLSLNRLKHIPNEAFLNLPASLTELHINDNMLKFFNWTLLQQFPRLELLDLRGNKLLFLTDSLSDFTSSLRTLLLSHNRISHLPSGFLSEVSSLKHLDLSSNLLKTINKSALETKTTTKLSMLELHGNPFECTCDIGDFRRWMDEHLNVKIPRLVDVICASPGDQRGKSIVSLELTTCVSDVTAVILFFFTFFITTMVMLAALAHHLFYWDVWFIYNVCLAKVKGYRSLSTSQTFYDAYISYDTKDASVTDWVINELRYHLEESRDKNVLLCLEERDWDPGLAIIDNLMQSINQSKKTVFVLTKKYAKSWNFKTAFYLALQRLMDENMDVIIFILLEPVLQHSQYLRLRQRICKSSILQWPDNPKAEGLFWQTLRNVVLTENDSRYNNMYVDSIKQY
Procedure: as §2

T1 sequence (O60603 21-784): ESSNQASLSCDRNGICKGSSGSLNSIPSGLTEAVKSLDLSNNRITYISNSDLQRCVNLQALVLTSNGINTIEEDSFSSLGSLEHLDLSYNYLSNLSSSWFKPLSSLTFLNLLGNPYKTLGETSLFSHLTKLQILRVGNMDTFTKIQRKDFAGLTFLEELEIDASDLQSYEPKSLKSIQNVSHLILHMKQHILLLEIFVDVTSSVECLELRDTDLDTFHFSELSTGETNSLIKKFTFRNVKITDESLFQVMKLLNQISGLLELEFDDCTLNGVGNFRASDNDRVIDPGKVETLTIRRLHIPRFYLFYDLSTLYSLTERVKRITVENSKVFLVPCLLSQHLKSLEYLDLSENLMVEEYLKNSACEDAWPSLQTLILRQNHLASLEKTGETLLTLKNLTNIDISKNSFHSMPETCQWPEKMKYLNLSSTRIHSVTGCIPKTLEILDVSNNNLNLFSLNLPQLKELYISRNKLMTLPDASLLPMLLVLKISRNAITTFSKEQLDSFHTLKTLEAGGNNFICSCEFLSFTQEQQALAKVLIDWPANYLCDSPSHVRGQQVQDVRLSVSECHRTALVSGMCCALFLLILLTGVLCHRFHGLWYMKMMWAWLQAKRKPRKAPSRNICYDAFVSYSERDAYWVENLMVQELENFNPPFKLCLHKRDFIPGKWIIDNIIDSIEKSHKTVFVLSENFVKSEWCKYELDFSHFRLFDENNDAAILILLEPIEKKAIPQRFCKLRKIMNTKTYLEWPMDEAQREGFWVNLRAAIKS

TLR2 activation in HEK TLR2 cells (SEAP) (human TLR2 [3]) | TLR8 induction in HEK TLR8 cells (SEAP) (human TLR8) | Structure (SMILES) | Activation of human adult PBMCs (cytokine levels by multiplex assay) (human adult PBMCs; 384-well plates, 24 hours, 0.05-33 μM) | Activation of human adult PBMCs (human adult PBMCs; 384 and 96 well assay) | Activation of THP1 cells (THP1-NF-κB cells; 384 and 96 well assay) | Efficacy in activating NF-κB in THP1 cells (screening hits) [1] | Activation of human TLR2 (NF-κB activation in TLR-expressing HEK-Blue cells) (human TLR2 [2]) | Adult PBMCs (median ng/ml) IL-6 (N = 7) (human adult PBMCs; 24 hours) | Adult PBMCs (median ng/ml) TNFa (N = 13) (human adult PBMCs; 24 hours) | THP1 cells (relative luminescence units, N = 4) Comp at 25 uM (THP1-NF-κB cells) | THP1 cells (relative luminescence units, N = 4) Comp at 100 uM (THP1-NF-κB cells)
– | – | COC(=O)c1c(NC(=O)CN2CCC3(CC2)OCCO3)sc2c1CCCC2 [Compound 004] | activates human adult PBMCs in a concentration-dependent manner | induced activation | induced activation of THP1 cells | most effective NF-κB activators; also recorded: most effective NF-kB activators | activate human TLR2; also recorded: activated the human TLR2-expressing human embryonic kidney (HEK)-Blue cell line | – | – | – | –
– | – | CCOC(=O)c1c(NC(=S)Nc2ccccc2OC)sc2c1CC(C)(C)OC2 [Compound 070] | – | – | – | most effective | activate human TLR2 | – | – | – | –
induced TLR2 specific activation | without induction of TLR8 | CNC(=O)c1c(NC(=O)c2ccc(S(=O)(=O)N(C)C)cc2)sc2c1CCCC2 [Compound 80.3] | – | – | – | – | – | 0.008 ng/mL | 0.008 ng/mL | 2835 relative luminescence units | 3630 relative luminescence units
induced TLR2 specific activation | without induction of TLR8 | CNC(=O)c1c(NC(=O)c2ccc(S(=O)(=O)N3CCCC3)cc2)sc2c1CCC2 [Compound 80.10] | – | – | – | – | – | 0.012 ng/mL | 0.008 ng/mL | 3576 relative luminescence units | 4814 relative luminescence units
induced TLR2 specific activation | without induction of TLR8 | CNC(=O)c1c(NC(=O)c2ccc(S(=O)(=O)N(C)C)cc2)sc(C)c1C [Compound 80.15] | – | – | – | – | – | 0.008 ng/mL | 0.0225 ng/mL | 6369 relative luminescence units | 9715 relative luminescence units

Reference: patent US12268739B2, “Use of toll-like receptor 2 (TLR-2) agonist for modulating human immune response” (Children's Medical Center Corporation, priority 2018, dated 2025)
